Reference: ChEMBL document CHEMBL1134446, “Polyamine analogue antidiarrheals: a structure-activity study” (J Med Chem, 2001)

Experiments:
[1] = test system: Canis familiaris; assay: Spermidine Distribution in kidney was determined after DESPM dosing of 6.0 mg/kg/day for 4.5 days in dog(cu dose-52.4) and sacrificed at 10 days PLD(cu dose-27 mg/kg); type: ADME, organism-based, Canis lupus familiaris; settings: in vivo, 240 h
[2] = test system: Canis familiaris; assay: putrescine Distribution in kidney was determined after DESPM dosing of 1.87 mg/kg/day for 28 days in dog and sacrificed at 75 days PLD(cu dose-52.4 mg/kg); type: ADME, organism-based, Canis lupus familiaris; settings: in vivo, 1800 h
[3] = test system: Canis familiaris; assay: Spermine Distribution in liver was determined after DESPM dosing of 8.0 mg/kg/day for 4.5 days in dog(cu dose-52.4) and sacrificed at 75 days PLD(cu dose-36 mg/kg); type: ADME, organism-based, Canis lupus familiaris; settings: in vivo, 1800 h
[4] = test system: Canis familiaris; assay: Spermine Distribution in kidney was determined after DESPM dosing of 8.0 mg/kg/day for 4.5 days in dog(cu dose-52.4) and sacrificed at 75 days PLD(cu dose-36 mg/kg); type: ADME, organism-based, Canis lupus familiaris; settings: in vivo, 1800 h
[5] = test system: Canis familiaris; assay: putrescine Distribution in liver was determined after DESPM dosing of 4 mg/kg/day for 13 days in dog(cu dose-52.4) and sacrificed at 75 days PLD(cu dose-52 mg/kg); type: ADME, organism-based, Canis lupus familiaris; settings: in vivo, 1800 h
[6] = test system: Canis familiaris; assay: MESPM/MEHSPH Distribution in liver was determined after DESPM dosing of 6.0 mg/kg/day for 4.5 days in dog(cu dose-52.4) and sacrificed at 75 days PLD(cu dose-27 mg/kg); type: ADME, organism-based, Canis lupus familiaris; settings: in vivo, 1800 h
[7] = test system: Rattus norvegicus; assay: Percent reduction was determined by using the ratio of mean of treated animal to that of control animal at a dose of 94 mg/kg; type: functional
[8] = test system: Canis familiaris; assay: putrescine Distribution in kidney was determined after DESPM dosing of 8.0 mg/kg/day for 4.5 days in dog and sacrificed at 10 days PLD(cu dose-36 mg/kg); type: ADME, organism-based, Canis lupus familiaris; settings: in vivo, 240 h
[9] = test system: Canis familiaris; assay: Spermine Distribution in kidney was determined after DESPM dosing of 4 mg/kg/day for 13 days in dog(cu dose-52.4) and sacrificed at 10 days PLD(cu dose-52 mg/kg); type: ADME, organism-based, Canis lupus familiaris; settings: in vivo, 240 h
[10] = test system: Canis familiaris; assay: MESPM/MEHSPH Distribution in kidney was determined after DESPM dosing of 1.87 mg/kg/day for 28 days in dog(cu dose-52.4) and sacrificed at 75 days PLD(cu dose-52.4 mg/kg); type: ADME, organism-based, Canis lupus familiaris; settings: in vivo, 1800 h
[11] = test system: Canis familiaris; assay: Spermidine Distribution in liver was determined after DESPM dosing of 8.0 mg/kg/day for 4.5 days in dog(cu dose-52.4) and sacrificed at 10 days PLD(cu dose-36 mg/kg); type: ADME, organism-based, Canis lupus familiaris; settings: in vivo, 240 h
[12] = test system: Canis familiaris; assay: Spermine Distribution in kidney was determined after DESPM dosing of 6.0 mg/kg/day for 4.5 days in dog(cu dose-52.4) and sacrificed at 10 days PLD(cu dose-27 mg/kg); type: ADME, organism-based, Canis lupus familiaris; settings: in vivo, 240 h
[13] = test system: Canis familiaris; assay: Spermidine Distribution in kidney was determined after DESPM dosing of 4 mg/kg/day for 13 days in dog(cu dose-52.4) and sacrificed at 75 days PLD(cu dose-52 mg/kg); type: ADME, organism-based, Canis lupus familiaris; settings: in vivo, 1800 h
[14] = test system: Canis familiaris; assay: Spermine Distribution in kidney was determined after DESPM dosing of 6.0 mg/kg/day for 4.5 days in dog(cu dose-52.4) and sacrificed at 75 days PLD(cu dose-27 mg/kg); type: ADME, organism-based, Canis lupus familiaris; settings: in vivo, 1800 h
[15] = test system: Canis familiaris; assay: putrescine Distribution in liver was determined after DESPM dosing of 1.87 mg/kg/day for 28 days in dog(cu dose-52.4) and sacrificed at 10 days PLD(cu dose-52.4 mg/kg); type: ADME, organism-based, Canis lupus familiaris; settings: in vivo, 240 h
[16] = test system: Canis familiaris; assay: putrescine Distribution in kidney was determined after DESPM dosing of 6.0 mg/kg/day for 4.5 days in dog and sacrificed at 75 days PLD(cu dose-27 mg/kg); type: ADME, organism-based, Canis lupus familiaris; settings: in vivo, 1800 h
[17] = test system: Canis familiaris; assay: MESPM/MEHSPH Distribution in liver was determined after DESPM dosing of 6.0 mg/kg/day for 4.5 days in dog(cu dose-52.4) and sacrificed at 10 days PLD(cu dose-27 mg/kg); type: ADME, organism-based, Canis lupus familiaris; settings: in vivo, 240 h
[18] = test system: Canis familiaris; assay: Spermine Distribution in liver was determined after DESPM dosing of 1.87 mg/kg/day for 28 days in dog(cu dose-52.4) and sacrificed at 75 days PLD(cu dose-52.4 mg/kg); type: ADME, organism-based, Canis lupus familiaris; settings: in vivo, 1800 h
[19] = test system: Canis familiaris; assay: MESPM/MEHSPH Distribution in kidney was determined after DESPM dosing of 1.87 mg/kg/day for 28 days in dog(cu dose-52.4) and sacrificed at 10 days PLD(cu dose-52.4 mg/kg); type: ADME, organism-based, Canis lupus familiaris; settings: in vivo, 240 h
[20] = test system: Canis familiaris; assay: Spermine Distribution in liver was determined after DESPM dosing of 4 mg/kg/day for 13 days in dog(cu dose-52.4) and sacrificed at 75 days PLD(cu dose-52 mg/kg); type: ADME, organism-based, Canis lupus familiaris; settings: in vivo, 1800 h
[21] = test system: Canis familiaris; assay: Spermine Distribution in kidney was determined after DESPM dosing of 1.87 mg/kg/day for 28 days in dog(cu dose-52.4) and sacrificed at 75 days PLD(cu dose-52.4 mg/kg); type: ADME, organism-based, Canis lupus familiaris; settings: in vivo, 1800 h
[22] = test system: Rattus norvegicus; assay: Weight loss of rat over the 6-h experimental period when a dose of 4.7 mg/kg (11.6 administered; type: functional
[23] = test system: Canis familiaris; assay: putrescine Distribution in liver was determined after DESPM dosing of 8.0 mg/kg/day for 4.5 days in dog(cu dose-52.4) and sacrificed at 10 days PLD(cu dose-36 mg/kg); type: ADME, organism-based, Canis lupus familiaris; settings: in vivo, 240 h
[24] = test system: Canis familiaris; assay: Spermidine Distribution in liver was determined after DESPM dosing of 1.87 mg/kg/day for 28 days in dog(cu dose-52.4) and sacrificed at 75 days PLD(cu dose-52.4 mg/kg); type: ADME, organism-based, Canis lupus familiaris; settings: in vivo, 1800 h
[25] = test system: Canis familiaris; assay: Distribution in liver was determined after DESPM dosing of 8.0 mg/kg/day for 4.5 days in dog(cu dose-52.4) and sacrificed at 10 days PLD(cu dose-36 mg/kg); type: ADME, organism-based, Canis lupus familiaris; settings: in vivo, 240 h
[26] = test system: Canis familiaris; assay: Spermidine Distribution in kidney was determined after DEHSPM dosing of 2.0 mg/kg/day […] in dog(cu dose-52.4) and sacrificed at 10 days PLD(cu dose-22 mg/kg); type: ADME, organism-based, Canis lupus familiaris; settings: in vivo, 240 h
[27] = test system: Canis familiaris; assay: MESPM/MEHSPH Distribution in liver was determined after DEHSPM dosing of 2.0 mg/kg/day for 29 days in dog(cu dose-52.4) and sacrificed at 10 days PLD(cu dose-22 mg/kg); type: ADME, organism-based, Canis lupus familiaris; settings: in vivo, 240 h
[28] = test system: Canis familiaris; assay: Distribution in liver was determined after DESPM dosing of 1.87 mg/kg/day for 28 days in dog(cu dose-52.4) and sacrificed at 75 days PLD(cu dose-52.4 mg/kg); type: ADME, organism-based, Canis lupus familiaris; settings: in vivo, 1800 h
[29] = test system: Canis familiaris; assay: Distribution in kidney was determined after DESPM dosing of 1.87 mg/kg/day for 28 days in dog(cu dose-52.4) and sacrificed at 10 days PLD(cu dose-52.4 mg/kg); type: ADME, organism-based, Canis lupus familiaris; settings: in vivo, 240 h
[30] = test system: Canis familiaris; assay: Distribution in kidney was determined after DESPM dosing of 8.0 mg/kg/day for 4.5 days in dog(cu dose-52.4) and sacrificed at 10 days PLD(cu dose-36 mg/kg); type: ADME, organism-based, Canis lupus familiaris; settings: in vivo, 240 h
[31] = test system: Canis familiaris; assay: Spermine Distribution in kidney was determined after DEHSPM dosing of 2.0 mg/kg/day for 29 days in dog(cu dose-52.4) and sacrificed at 10 days PLD(cu dose-22 mg/kg); type: ADME, organism-based, Canis lupus familiaris; settings: in vivo, 240 h
[32] = test system: Canis familiaris; assay: Distribution in liver was determined after DEHSPM dosing of 2.0 mg/kg/day for 29 days in dog(cu dose-52.4) and sacrificed at 10 days PLD(cu dose-22 mg/kg); type: ADME, organism-based, Canis lupus familiaris; settings: in vivo, 240 h

## CCNCCCNCCCCNCCCNCC [BIS(ETHYL)SPERMINE]
[1]
  Wet weight of tissue: 60 nM/g
[2]
  Wet weight of tissue: 16 nM/g
[3]
  Wet weight of tissue: 1058 nM/g
[4]
  Wet weight of tissue: 624 nM/g
[5]
  Wet weight of tissue: 62 nM/g
[6]
  Wet weight of tissue: 1 nM/g
[7]
  Reduction: 81%
[8]
  Wet weight of tissue: 20 nM/g
[9]
  Wet weight of tissue: 277 nM/g
[10]
  Wet weight of tissue: 0 nM/g
[11]
  Wet weight of tissue: 187 nM/g
[12]
  Wet weight of tissue: 654 nM/g
[13]
  Wet weight of tissue: 117 nM/g
[14]
  Wet weight of tissue: 584 nM/g
[15]
  Wet weight of tissue: 86 nM/g
[16]
  Wet weight of tissue: 8 nM/g
[17]
  Wet weight of tissue: 23 nM/g
[18]
  Wet weight of tissue: 649 nM/g
[19]
  Wet weight of tissue: 12 nM/g
[20]
  Wet weight of tissue: 886 nM/g
[21]
  Wet weight of tissue: 540 nM/g
[22]
  Weight loss: <7.5 g
[23]
  Wet weight of tissue: 109 nM/g
[24]
  Wet weight of tissue: 198 nM/g

## CCNCCCCNCCCCNCCCCNCC [DIETHYLHOMOSPERMINE]
[25]
  Wet weight of tissue: 29 nM/g
[26]
  Wet weight of tissue: 68 nM/g
[27]
  Wet weight of tissue: 13 nM/g
[28]
  Wet weight of tissue: 0 nM/g
[29]
  Wet weight of tissue: 50 nM/g
[30]
  Wet weight of tissue: 48 nM/g
[31]
  Wet weight of tissue: 611 nM/g
[32]
  Wet weight of tissue: 0 nM/g
